From patent US10093678B2, “Azaspiro derivatives as TRPM8 antagonists” (RaQualia Pharma Inc., priority 2014, dated 2018)

Target: T1, human TRPM8 (Homo sapiens, UniProt Q7Z2W7)
T1 construct: expressed in transfected cells; host or cells: HEK293
Experiment: Menthol-induced Ca2+ influx in HEK293 cells stably expressing human TRPM8
Assay type: cell-based
Conditions: 30 microM menthol-induced Ca2+ influx, read-out: IC50 against TRPM8
Description: Measurement of the Menthol-Induced Ca^2+ Influx in HEK293 Cells Stably Expressing Human TRPM8
A cell-based Ca^2+ influx assay using HEK293 cells stably expressing human TRPM8 is used to identify the activity of compounds.
HEK293 cells stably expressing human TRPM8 are grown in T175 flasks at 37° C. in a 5% CO2 humidified incubator to about 80% confluence. Media composition consists of Dulbecco's Modified Eagle Medium (high glucose), 10% fetal calf serum (FCS), 100 units/mLPenicillin, 100 microg/mL Streptomycin and 600 microg/mL Geneticine. At 24 hours prior to assay, cells are seeded in poly-D-lysine coated 384-well plates (BD FALCON) at a density of 30,000 cells per well in culture medium and grown overnight in 5% CO2 at 37° C. On the assay day, growth media is removed and cells are loaded with 0.5 microM Fluo4-AM (Molecular Probes) and 0.005% Pluronic F-127 dissolved in assay buffer (Hank's balanced salt solution (HBSS), 19.4 mM HEPES pH7.4, 2.5 mM Probenecid) for 1 hour at room temperature. After washing with assay buffer, the cells are preincubated with various concentrations of the compounds for 5 min. The changes in intracellular calcium concentration by addition of 30 microM menthol are monitored by the cell imaging technology by Hamamatsu Photonics Functional Drug Screening System (FDSS).
The IC50 values for compounds of the present invention are determined from 11-point dose-response studies. Curves are generated using the average of duplicate wells for each data point. Finally, the IC50 values are calculated with the best-fit dose curve determined by XLfit (ID Business Solutions Ltd.).

T1 sequence (Q7Z2W7 whole entry): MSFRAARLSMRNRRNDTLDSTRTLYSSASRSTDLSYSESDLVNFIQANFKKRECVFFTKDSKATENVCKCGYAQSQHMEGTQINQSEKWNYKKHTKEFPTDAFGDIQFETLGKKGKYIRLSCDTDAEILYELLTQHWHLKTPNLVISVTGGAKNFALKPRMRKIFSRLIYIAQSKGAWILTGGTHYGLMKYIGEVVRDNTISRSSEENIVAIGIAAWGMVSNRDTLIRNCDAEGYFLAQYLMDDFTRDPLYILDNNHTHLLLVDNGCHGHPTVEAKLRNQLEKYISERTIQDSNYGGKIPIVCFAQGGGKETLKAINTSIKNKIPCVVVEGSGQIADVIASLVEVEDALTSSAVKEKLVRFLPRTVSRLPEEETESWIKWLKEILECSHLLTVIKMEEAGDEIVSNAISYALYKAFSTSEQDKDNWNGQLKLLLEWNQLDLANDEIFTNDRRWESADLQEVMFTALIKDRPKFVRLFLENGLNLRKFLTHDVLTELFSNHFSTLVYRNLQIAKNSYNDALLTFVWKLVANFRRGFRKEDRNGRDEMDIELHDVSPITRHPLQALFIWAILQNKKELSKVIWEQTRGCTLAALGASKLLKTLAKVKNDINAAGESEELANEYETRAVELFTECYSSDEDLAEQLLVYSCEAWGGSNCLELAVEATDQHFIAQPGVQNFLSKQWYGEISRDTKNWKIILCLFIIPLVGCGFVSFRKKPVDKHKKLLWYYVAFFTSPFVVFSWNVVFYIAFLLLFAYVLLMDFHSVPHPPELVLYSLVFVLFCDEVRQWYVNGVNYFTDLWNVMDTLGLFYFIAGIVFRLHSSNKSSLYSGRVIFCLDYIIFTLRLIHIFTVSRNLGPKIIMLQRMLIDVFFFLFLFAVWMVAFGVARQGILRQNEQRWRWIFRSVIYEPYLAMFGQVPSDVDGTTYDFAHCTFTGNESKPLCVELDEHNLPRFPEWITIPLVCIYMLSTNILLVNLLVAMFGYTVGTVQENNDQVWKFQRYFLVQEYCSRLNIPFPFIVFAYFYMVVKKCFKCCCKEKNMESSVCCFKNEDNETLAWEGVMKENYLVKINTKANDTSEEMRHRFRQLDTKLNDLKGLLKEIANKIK

Row | Structure (SMILES) | IC50
1 | Cc1nc2ccccc2n1-c1ccc(C(=O)CN2C(=O)NC3(CCCCCC3)C2=O)cc1 [Example 5-13] | < 100 nM
2 | Cc1nc2ccccc2n1-c1ccc(C(=O)CN2C(=O)NC3(CCC(F)(F)CC3)C2=O)cn1 [Example 5-14] | < 10 nM
3 | O=C(CN1C(=O)NC2(CCC(F)(F)CC2)C1=O)c1ccc(-n2c(CO)nc3ccccc32)cc1 [Example 5-15, 8,8-difluoro-3-(2-(4-(2-(hydroxymethyl)-1H-benzo[d]imidazol-1-yl)phenyl)-2-oxoethyl)-1,3-diazaspiro[4.5]decane-2,4-dione] | < 100 nM
4 | NCc1nc2ccccc2n1-c1ccc(C(=O)CN2C(=O)NC3(CCC(F)(F)CC3)C2=O)cc1 [Example 5-16, 3-(2-(4-(2-(aminomethyl)-1H-benzo[d]imidazol-1-yl)phenyl)-2-oxoethyl)-8,8-difluoro-1,3-diazaspiro[4.5]decane-2,4-dione] | < 500 nM
5 | O=C(CN1C(=O)NC2(CCC(F)(F)CC2)C1=O)c1ccc(Oc2ccccn2)cc1 [Example 5-17] | < 100 nM
6 | O=C(CN1C(=O)NC2(CCCCC2)C1=O)c1ccc(Oc2ccccn2)cc1 [Example 5-18] | < 100 nM
7 | O=C(CN1C(=O)NC2(CCCCC2)C1=O)c1ccc(Oc2ccccc2)cc1 [Example 5-19] | < 100 nM
8 | O=C(CN1C(=O)NC2(CCC(F)(F)CC2)C1=O)c1ccc(Oc2ncccn2)cc1 [Example 5-20] | < 100 nM
9 | O=C(CN1C(=O)NC2(CCC(F)(F)CC2)C1=O)c1ccc(Oc2ncccn2)cc1 [Example 5-21] | < 500 nM
10 | O=C(CN1C(=O)NC2(CCC(F)(F)CC2)C1=O)c1ccc(Oc2cccnn2)cc1 [Example 5-22] | < 100 nM
11 | O=C(CN1C(=O)NC2(CCC(F)(F)CC2)C1=O)c1ccc(Oc2ccccc2)nc1 [Example 5-23] | < 500 nM
12 | O=C(CN1C(=O)NC2(CCCCC2)C1=O)c1ccc(Oc2ccccc2)nc1 [Example 5-24] | < 500 nM
13 | Cc1ccncc1-c1ncc(C(=O)CN2C(=O)NC3(CCC(F)(F)CC3)C2=O)cc1Cl [Example 5-25] | < 100 nM
14 | Cc1ccnnc1-c1ccc(C(=O)CN2C(=O)NC3(CCCCCC3)C2=O)cc1 [Example 5-26] | < 100 nM
15 | Cc1ccc2nc(C)n(-c3ccc(C(=O)CN4C(=O)NC5(CCC(F)(F)CC5)C4=O)cc3)c2n1 [Example 5-27] | < 10 nM
16 | Cc1ccc2nc(C)n(-c3ccc(C(=O)CN4C(=O)NC5(CCCCCC5)C4=O)cc3)c2n1 [Example 5-30] | < 100 nM
17 | Cc1nc2ccc(C(F)(F)F)nc2n1-c1ccc(C(=O)CN2C(=O)NC3(CCC(F)(F)CC3)C2=O)cc1 [Example 5-31] | < 100 nM
18 | Cc1nc2cccnc2n1-c1ccc(C(=O)CN2C(=O)NC3(CCCCCC3)C2=O)cc1 [Example 5-32] | < 100 nM
19 | Cc1nc2cccnc2n1-c1ccc(C(=O)CN2C(=O)NC3(CCCCC3)C2=O)cn1 [Example 5-33] | < 100 nM
20 | O=C(CN1C(=O)NC2(CCC(F)(F)CC2)C1=O)c1ccc(Sc2ncccn2)cc1 [Example 5-39] | < 100 nM
21 | O=C(CN1C(=O)NC2(CCCCC2)C1=O)c1ccc(Oc2cccnn2)cc1 [Example 5-40] | < 500 nM
22 | O=C(CN1C(=O)NC2(CCCCCC2)C1=O)c1ccc(Oc2cccnn2)cc1 [Example 5-41] | < 100 nM
23 | O=C(CN1C(=O)NC2(CCC(F)(F)CC2)C1=O)c1ccc(-c2ccnc3[nH]ncc23)cc1 [Example 6-1] | < 10 nM
24 | O=C(CN1C(=O)NC2(CCC(F)(F)CC2)C1=O)c1ccc(-c2ncnc3ccccc23)cc1 [Example 6-2] | < 10 nM
25 | N#Cc1nccnc1-c1ccc(C(=O)CN2C(=O)NC3(CCC(F)(F)CC3)C2=O)cc1 [Example 6-3] | < 10 nM
26 | O=C(CN1C(=O)NC2(CCC(F)(F)CC2)C1=O)c1ccc(-c2cncc3[nH]ncc23)cc1 [Example 6-4] | < 10 nM
27 | O=C(CN1C(=O)NC2(CCC(F)(F)CC2)C1=O)c1ccc(-c2cncc3[nH]ccc23)cc1 [Example 6-5] | < 10 nM

Row | Structure (SMILES) | IC50
28 | O=C(CN1C(=O)NC2(CCC(F)(F)CC2)C1=O)c1ccc(-c2nccnc2CO)cc1 [Example 6-6] | < 10 nM
29 | Cc1cnc(C)c(-c2ccc(C(=O)CN3C(=O)NC4(CCC(F)(F)CC4)C3=O)cc2)n1 [Example 6-7] | < 10 nM
30 | O=C(CN1C(=O)NC2(CCC(F)(F)CC2)C1=O)c1ccc(-c2ncnc3[nH]ccc23)cc1 [Example 6-8] | < 10 nM
31 | O=C(CN1C(=O)NC2(CCC(F)(F)CC2)C1=O)c1ccc(-c2cccnc2CO)cc1 [Example 6-9] | < 100 nM
32 | O=C(CN1C(=O)NC2(CCC(F)(F)CC2)C1=O)c1ccc(-c2cnccc2CO)cc1 [Example 6-10] | < 100 nM
33 | Cc1nccnc1-c1ccc(C(=O)CN2C(=O)NC3(CCC(F)(F)CC3)C2=O)cc1 [Example 6-11] | < 100 nM
34 | Cc1ncsc1-c1ccc(C(=O)CN2C(=O)NC3(CCC(F)(F)CC3)C2=O)cc1 [Example 6-12] | < 100 nM
35 | O=C(CN1C(=O)NC2(CCC(F)(F)CC2)C1=O)c1ccc(-c2ccnc3[nH]ccc23)cc1 [Example 6-13] | < 100 nM
36 | Cc1ccnnc1-c1ccc(C(=O)CN2C(=O)NC3(CCC(F)(F)CC3)C2=O)cc1 [Example 6-14] | < 100 nM
37 | N#Cc1ncccc1-c1ccc(C(=O)CN2C(=O)NC3(CCC(F)(F)CC3)C2=O)cc1 [Example 6-15] | < 100 nM
38 | N#Cc1ccncc1-c1ccc(C(=O)CN2C(=O)NC3(CCC(F)(F)CC3)C2=O)cc1 [Example 6-16] | < 100 nM
39 | O=C(CN1C(=O)NC2(CCC(F)(F)CC2)C1=O)c1ccc(-c2cccnc2OCCO)cc1 [Example 6-17] | < 100 nM
40 | O=C(CN1C(=O)NC2(CCC(F)(F)CC2)C1=O)c1ccc(-c2nncc3ccccc23)cc1 [Example 6-18] | < 100 nM
41 | O=C(CN1C(=O)NC2(CCC(F)(F)CC2)C1=O)c1ccc(-c2ccccc2O)cc1 [Example 6-19] | < 100 nM
42 | O=C(CN1C(=O)NC2(CCC(F)(F)CC2)C1=O)c1ccc(-c2nccc3[nH]ncc23)cc1 [Example 6-20] | < 100 nM
43 | O=C(CN1C(=O)NC2(CCC(F)(F)CC2)C1=O)c1ccc(-c2cccc3nccn23)cc1 [Example 6-21] | < 100 nM
44 | O=C(CN1C(=O)NC2(CCC(F)(F)CC2)C1=O)c1ccc(-c2ncccc2Cl)cc1 [Example 6-22] | < 100 nM
45 | O=C(CN1C(=O)NC2(CCC(F)(F)CC2)C1=O)c1ccc(-c2ncnc3[nH]ncc23)cc1 [Example 6-23] | < 100 nM
46 | O=C(CN1C(=O)NC2(CCC(F)(F)CC2)C1=O)c1ccc(-c2nccc3[nH]ccc23)cc1 [Example 6-24] | < 100 nM
47 | O=C(CN1C(=O)NC2(CCC(F)(F)CC2)C1=O)c1ccc(-c2nccc3ccccc23)cc1 [Example 6-25] | < 100 nM
48 | N#Cc1cccc(-c2ccc(C(=O)CN3C(=O)NC4(CCC(F)(F)CC4)C3=O)cc2)n1 [Example 6-26] | < 100 nM
49 | O=C(CN1C(=O)NC2(CCC(F)(F)CC2)C1=O)c1ccc(-c2ncccc2F)cc1 [Example 6-27] | < 100 nM
50 | Cc1cncc(-c2ccc(C(=O)CN3C(=O)NC4(CCC(F)(F)CC4)C3=O)cc2)n1 [Example 6-28] | < 100 nM
51 | Cc1ccsc1-c1ccc(C(=O)CN2C(=O)NC3(CCC(F)(F)CC3)C2=O)cc1 [Example 6-29] | < 100 nM
52 | O=C(CN1C(=O)NC2(CCC(F)(F)CC2)C1=O)c1ccc(-c2cccc3nccnc23)cc1 [Example 6-30] | < 100 nM
53 | O=C(CN1C(=O)NC2(CCC(F)(F)CC2)C1=O)c1ccc(-c2nccc3occc23)cc1 [Example 6-31] | < 100 nM
